Source: paper PMC11521309, “A novel 4-aminoquinoline chemotype with multistage antimalarial activity and lack of cross-resistance with PfCRT and PfMDR1 mutants” (PLOS Pathogens, 2024)
Where “and” joins values, the source holds several entries; their conditions need not be identical. Identical values can stand only once. Like-named read-outs stand apart in the source and are kept apart here.

Experiments:
[1] = tested on: P. berghei ookinete formation; assay: In vitro inhibition of ookinete formation (nLuc conversion assay), 24 h; assay type: cell-based, Plasmodium berghei; details: Plasmodium berghei; for activity at 10 µM: read-out: % Inhibition of ookinete conversion, 10 uM; for activity at 25 µM: read-out: % Inhibition of ookinete conversion, 25 uM; for activity at 100 µM: read-out: % Inhibition of ookinete conversion, 100 uM
Description: To measure the inhibition of gamete conversion into ookinetes, a mutant luciferase-expressing P. berghei line (nLuc) was intraperitoneally injected into BALB/c mice. After 3–4 days, gametocyte-carrying blood samples were collected. In vitro compound testing was carried out by exposing 4 μL of infected blood mixed with 80 μL of culture medium (RPMI-1640 supplemented with 25 mM HEPES, 50 mg/L hypoxanthine, and 1% penicillin/streptomycin/neomycin at pH 8.3) to a range of drug concentrations for 24 hours at 21°C. Following the incubation, 20 μL of nLuc substrate (Nano-Glo Luciferase Assay System, Promega) was added to each well, and luminescence was measured in a luminometer. Increased light emission correlated with nLuc production and subsequent luciferase activity due to in vitro fertilization and ookinete conversion, as luciferase expression in this parasite line is regulated by the CTRP promoter that is ookinete-specific. Conversion inhibition was calculated as the percentage of luciferase activity of drug-exposed wells relative to untreated ones, from which IC50 values were interpolated.

[2] = tested on: Hz formation in ABS P. falciparum 3D7 parasites; assay: Cellular heme fractionation assay; assay type: cell-based, Plasmodium falciparum
Description: A heme fractionation assay was used to measure the inhibition of Hz formation in cultured ABS P. falciparum 3D7 parasites as previously described. […] Late trophozoites were harvested after 32 hours of incubation by lysing RBCs with 0.05% saponin followed by multiple washes with 1 × PBS (pH 7.5) to remove any residual traces of hemoglobin. The parasite pellet was resuspended in PBS and the total number of trophozoites isolated was quantified using flow cytometry. Contents of the trophozoite pellet were released by hypotonic lysis and sonication. After centrifugation, treatments with HEPES buffer (pH 7.4), sodium dodecyl sulfate, pyridine, and NaOH, allowed us to separate the fractions corresponding to the different heme species of interest. A microplate reader was employed to measure the UV-visible spectrum of each heme fraction as a Fe(III)heme-pyridine complex. Fractions of undigested hemoglobin, “free” heme, and Hz were quantified using a heme standard curve based on the mass of each heme-Fe species per mature trophozoite (fg/cell), obtained by dividing the total amount of each heme species by the corresponding number of parasites in that fraction as determined by flow cytometry. Statistical comparisons and analyses for trends employed Students’ t-tests (GraphPad Prism version 9).

P. falciparum Dd2^H97Y = tested on: P. falciparum Dd2^H97Y; parameters: key: S: sensitive; R: resistant; details: ref [19],[20],[51]; cited from earlier work
[3] = single replicates, Control = 100
[4] = 0.5x IC50, 32 h, single replicates
[5] = 0.5–3.0 × IC50 vs untreated control
[6] = 1x IC50, 32 h, single replicates
[7] = 2x IC50, 32 h, single replicates
[8] = 2.5x IC50, 32 h, single replicates
[9] = 3x IC50, 32 h, single replicates

## CCN(CC)CCCC(C)Nc1ccnc2cc(Cl)ccc12 (stereo not shown) [CQ, chloroquine]
[1]; Mean, Control mean 96.63
  activity at 10 µM: 43.2%
  activity at 25 µM: 14.4%
  activity at 100 µM: 0.22%
[1]; [3]
  activity at 10 µM: 38.1%
  activity at 25 µM: 12.7%
  activity at 100 µM: 0.2%
[1]; read-out: % Inhibition of ookinete conversion, 50 uM, Mean, Control mean 96.63
  activity at 50 µM: 0.49%
[1]; read-out: inhibition of zygote conversion into ookinetes
  inhibition at 10 µM: 56.7%
[2]; 0.5x IC50, 32 h, Mean
  %Hb: 3.19%
  %Hemozoin: 88.03%
  Hb Fe (fg/troph): 1.79 fg/troph
  Heme Fe (fg/troph): 4.89 fg/troph
  Hemozoin Fe (fg/troph): 48.61 fg/troph
  Total Fe (fg/troph): 57.03 fg/troph
[2]; [4]
  %Hb: 3.1577% and 3.5151% and 3.0401% and 3.0419%
  %Heme: 10.1984% and 8.3472% and 8.0733% and 8.4973%
  %Hemozoin: 86.6439% and 88.1377% and 88.8867% and 88.4608%
  Hb Fe (fg/troph): 1.6883 fg/troph and 1.9552 fg/troph and 1.7265 fg/troph and 1.8935 fg/troph
  Heme Fe (fg/troph): 5.4527 fg/troph and 4.6429 fg/troph and 4.5850 fg/troph and 5.2894 fg/troph
  Hemozoin Fe (fg/troph): 46.3251 fg/troph and 49.0239 fg/troph and 50.4811 fg/troph and 55.0658 fg/troph
  Total Fe (fg/troph): 53.47 fg/troph and 55.62 fg/troph and 56.79 fg/troph and 62.25 fg/troph
[2]; [5]
  effect on Hz levels: Hz levels only decreased significantly from 2 × IC50
  effect on undigested Hb: significant at 2.5 × IC50 of CQ only
  effect on “free” heme: significant increase in “free” heme starting at 0.5 × IC50
[2]; 1x IC50, 32 h, Mean
  %Hb: 3.14%
  %Hemozoin: 88.13%
  Hb Fe (fg/troph): 1.74 fg/troph
  Heme Fe (fg/troph): 5.05 fg/troph
  Hemozoin Fe (fg/troph): 48.59 fg/troph
  Total Fe (fg/troph): 56.08 fg/troph
[2]; [6]
  %Hb: 2.4393% and 3.8543% and 3.1547% and 3.1175%
  %Heme: 10.2450% and 7.2686% and 7.4306%
  %Hemozoin: 87.3158% and 86.1923% and 89.5767% and 89.4519%
  Hb Fe (fg/troph): 1.3251 fg/troph and 2.0733 fg/troph and 1.8303 fg/troph and 1.8137 fg/troph
  Heme Fe (fg/troph): 5.5654 fg/troph and 5.3541 fg/troph and 4.2171 fg/troph and 4.3229 fg/troph
  Hemozoin Fe (fg/troph): 47.4331 fg/troph and 46.3642 fg/troph and 51.9709 fg/troph and 52.0405 fg/troph
  Total Fe (fg/troph): 54.32 fg/troph and 53.79 fg/troph and 58.02 fg/troph and 58.18 fg/troph
[2]; 2x IC50, 32 h, Mean
  %Hb: 3.51%
  %Hemozoin: 87.00%
  Hb Fe (fg/troph): 1.98 fg/troph
  Heme Fe (fg/troph): 5.58 fg/troph
  Hemozoin Fe (fg/troph): 48.43 fg/troph
  Total Fe (fg/troph): 56.59 fg/troph
[2]; [7]
  %Hb: 3.5841% and 3.0885% and 3.9396% and 3.4358%
  %Heme: 10.5037% and 10.6360% and 8.0922%
  %Hemozoin: 85.9123% and 86.2755% and 87.3313% and 88.4720%
  Hb Fe (fg/troph): 2.0351 fg/troph and 1.7333 fg/troph and 2.1697 fg/troph and 2.0058 fg/troph
  Heme Fe (fg/troph): 5.9641 fg/troph and 5.9691 fg/troph and 4.8074 fg/troph and 4.7243 fg/troph
  Hemozoin Fe (fg/troph): 48.7818 fg/troph and 48.4187 fg/troph and 48.0959 fg/troph and 51.6502 fg/troph
  Total Fe (fg/troph): 56.78 fg/troph and 56.12 fg/troph and 55.07 fg/troph and 58.38 fg/troph
[2]; 2.5x IC50, 32 h, Mean
  %Hb: 4.73%
  %Heme: 10.26%
  %Hemozoin: 85.01%
  Hb Fe (fg/troph): 2.72 fg/troph
  Heme Fe (fg/troph): 5.95 fg/troph
  Hemozoin Fe (fg/troph): 47.56 fg/troph
  Total Fe (fg/troph): 56.58 fg/troph
[2]; [8]
  %Hb: 4.8862% and 4.8721% and 4.7430% and 4.4317%
  %Heme: 10.8743% and 11.0956%
  %Hemozoin: 84.2395% and 85.3413% and 84.1614% and 86.2810%
  Hb Fe (fg/troph): 2.8007 fg/troph and 2.7933 fg/troph and 2.5619 fg/troph and 2.5547 fg/troph
  Heme Fe (fg/troph): 6.2331 fg/troph and 5.6110 fg/troph and 5.9933 fg/troph and 5.3538 fg/troph
  Hemozoin Fe (fg/troph): 48.2856 fg/troph and 48.9290 fg/troph and 45.4601 fg/troph and 49.7378 fg/troph
  Total Fe (fg/troph): 57.32 fg/troph and 57.33 fg/troph and 54.02 fg/troph and 57.65 fg/troph
[2]; 3x IC50, 32 h, Mean
  %Hb: 3.75%
  %Heme: 14.98%
  %Hemozoin: 81.27%
  Hb Fe (fg/troph): 2.01 fg/troph
  Heme Fe (fg/troph): 8.01 fg/troph
  Hemozoin Fe (fg/troph): 43.26 fg/troph
  Total Fe (fg/troph): 56.94 fg/troph
[2]; [9]
  %Hb: 2.5119% and 4.3346% and 4.4230% and 3.7332%
  %Heme: 15.7024% and 13.7857% and 15.6412% and 14.7736%
  %Hemozoin: 81.7857% and 81.8796% and 79.9358% and 81.4933%
  Hb Fe (fg/troph): 1.3141 fg/troph and 2.3188 fg/troph and 2.3892 fg/troph and 2.5358 fg/troph
  Heme Fe (fg/troph): 8.2149 fg/troph and 7.3747 fg/troph and 8.4490 fg/troph and 10.0350 fg/troph
  Hemozoin Fe (fg/troph): 42.7874 fg/troph and 43.8015 fg/troph and 43.1792 fg/troph and 55.3544 fg/troph
  Total Fe (fg/troph): 52.32 fg/troph and 53.50 fg/troph and 54.02 fg/troph and 67.93 fg/troph
P. falciparum Dd2^H97Y
  Phenotype, Dd2^H97Y: R
